Publication PMC3229842 (Chemmedchem, 2011)
Like-named read-outs stand apart in the source and are kept apart here.

How the values were obtained:
[1] = test system: T. brucei (S427 single marker line); assay: microbe, parasite or virus in culture; assay type: cell-based, Trypanosoma brucei; details: for EC50: Trypanosoma brucei
[2] = test system: MRC-5 cell line (normal diploid human fibroblasts); assay: cells; assay type: cell-based; details: MRC5, read-out: pEC50 MRC-5 (converted)
T. brucei = details: cited from earlier work

SMILES: O=C(Cc1ccc(Cl)c(Cl)c1)Nc1ccccc1N1CCCC1 [Compound 44, 2-(3,4-Dichlorophenyl)-N-[2-(pyrrolidin-1-yl)phenyl]acetamide]
- fold loss of potency relative to 38 [1]: > 66 fold
- EC50 ([1]; 72 h, read-out: EC50 T. b. brucei): 17700 nM

SMILES: N=C(N)c1ccc(OCCCCCOc2ccc(C(=N)N)cc2)cc1 [Pentamidine]
- EC50 ([1]; read-out: pEC50 T. brucei (converted)): 3.55 nM

SMILES: COc1cccc2c1C(=O)c1c(O)c3c(c(O)c1C2=O)C[C@@](O)(C(=O)CO)C[C@@H]3O[C@H]1C[C@H](N)[C@H](O)[C@H](C)O1 [doxorubicin]
- EC50 [2]: 70.8 nM

SMILES: NCCCC(N)(C(=O)O)C(F)F (centres unmarked) [eflornithine]
- Hill slope (s) (T. brucei): 4.0
